Twelve compounds from PubChem BioAssay (NCI) can be followed below.

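Five compound concentrations were applied to cells in 96-well plates for 48 hours; endpoints were derived by simple linear interpolation of the resulting dose-response curve. The concentration for 50% growth inhibition is given as GI50. The concentration for full growth arrest is given as TGI.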 A value given as a limit tells only on which side of the number the result lay.

Among the test systems are CAKI-1 renal; COLO 205 colon; HL-60(TB) leukemia; IGROV1 ovarian; K-562 leukemia; PC-3 prostate; SN12C renal; SW-620 colon; T-47D breast; HS 578T breast.
Common to all, as to experiment: inhibition of tumour cell growth, NCI panel, 48 h

On to `C[C@]12CC/C(=N\O)C[C@@H]1CC[C@@H]1[C@@H]2CC[C@]2(C)/C(=N/O)CC[C@@H]12`, for which the GI50 is 25.4 µM in the assay on CAKI-1 renal; 35.8 µM in the assay on COLO 205 colon; 23.2 µM with HL-60(TB) leukemia; 17.4 µM with IGROV1 ovarian; 40.9 µM with K-562 leukemia; 43.7 µM in the assay on PC-3 prostate. In addition, the GI50 in the assay on SN12C renal is 47.1 µM; in the assay with SW-620 colon, 57.1 µM; in the assay with T-47D breast, more than 100 µM. Further, the TGI in the assay on CAKI-1 renal is 86.2 µM; in the assay with COLO 205 colon it was more than 100 µM; with HL-60(TB) leukemia, more than 100 µM; in the assay with IGROV1 ovarian it was 62.6 µM; in the assay with K-562 leukemia it was more than 100 µM; in the assay on PC-3 prostate, more than 100 µM. The TGI with SN12C renal, with SW-620 colon and with T-47D breast was more than 100 µM each time.
Turning to `CC1=CC[C@@H]2[C@@H](CC[C@@]2(C)O)C(C)(C)[C@H]1CC[C@@H]1[C@@]2(C)CC[C@@H](O)C(C)(C)O[C@@H]2CC[C@]1(C)O`, the TGI with CAKI-1 renal is 54.2 µM; in the assay on COLO 205 colon it was 38.1 µM; in the assay on HL-60(TB) leukemia it was 40.5 µM; in the assay on K-562 leukemia, more than 100 µM; in the assay with PC-3 prostate, more than 100 µM; with SN12C renal, 57.2 µM. For the same compound, the TGI in the assay with SW-620 colon is 85.7 µM; in the assay on T-47D breast, more than 100 µM.
`CC(=O)CC(=O)ON(C)C(C)=O`: the TGI with CAKI-1 renal, in the assay on COLO 205 colon, in the assay on HL-60(TB) leukemia, in the assay on IGROV1 ovarian, in the assay with K-562 leukemia and with SN12C renal was more than 100 µM each time. In the assay with SW-620 colon, this compound gave a TGI of more than 100 µM.
For `CCCCN1C(=O)C2c3[nH]c4ccccc4c3C3CCCCC3C2C1=O` (mixture of isomers), the TGI in the assay with CAKI-1 renal was 20.4 µM; in the assay with COLO 205 colon, more than 100 µM; in the assay with HL-60(TB) leukemia, 29.1 µM; with IGROV1 ovarian, 75.9 µM; in the assay with K-562 leukemia, 28.3 µM; in the assay with SN12C renal, more than 100 µM. This compound gave a TGI in the assay with SW-620 colon of more than 100 µM.
As for `COc1ccc(NC(=O)COc2ccccc2)c(C(N)=O)c1`, the GI50 was 1.09 µM with CAKI-1 renal; 0.505 µM in the assay with COLO 205 colon; 0.368 µM in the assay on HL-60(TB) leukemia; 0.871 µM in the assay with HS 578T breast; 4.71 µM in the assay on IGROV1 ovarian; 0.348 µM with K-562 leukemia. Further, the GI50 in the assay with PC-3 prostate is 0.712 µM; in the assay with SN12C renal, 5.53 µM; with SW-620 colon it was 0.511 µM. Also, the TGI was more than 100 µM in the assay on CAKI-1 renal; 6.56 µM in the assay on COLO 205 colon; more than 100 µM in the assay on HL-60(TB) leukemia; 97.1 µM in the assay with HS 578T breast; more than 100 µM in the assay on IGROV1 ovarian; more than 100 µM in the assay on K-562 leukemia. Besides, the TGI in the assay with PC-3 prostate, with SN12C renal and in the assay with SW-620 colon was more than 100 µM each time.
For `Cc1ccc2oc(=O)cc(CC(=O)O)c2c1`, the TGI in the assay on CAKI-1 renal, with COLO 205 colon, in the assay on HL-60(TB) leukemia, with IGROV1 ovarian, in the assay with K-562 leukemia and with SN12C renal was more than 100 µM throughout. Also, the TGI with SW-620 colon is more than 100 µM.
As for `O=C(NCCN1CCOCC1)Nc1nc2ccc(Sc3nnc4ccc(-c5ccc(F)cc5)nn34)cc2s1`, the TGI is more than 100 µM with CAKI-1 renal; more than 33.3 µM in the assay on COLO 205 colon; more than 100 µM in the assay on IGROV1 ovarian; more than 100 µM with K-562 leukemia; more than 100 µM in the assay with PC-3 prostate; more than 100 µM in the assay with SN12C renal. Also, the results for the TGI in the assay on SW-620 colon and in the assay with T-47D breast were more than 100 µM and more than 59.6 µM, respectively. Moreover, the GI50 is 4.53 µM in the assay with COLO 205 colon; more than 100 µM in the assay on IGROV1 ovarian; 2.31 µM in the assay with K-562 leukemia; more than 100 µM in the assay on PC-3 prostate; more than 21.2 µM in the assay with T-47D breast.
For the compound `COc1ccc(/C=C(/C(=O)N2CCN(c3ccc(C)cc3)CC2)c2cc(OC)c(OC)c(OC)c2)cc1N`, the GI50 was 0.465 µM in the assay on CAKI-1 renal; 0.339 µM with COLO 205 colon; 0.255 µM in the assay with HL-60(TB) leukemia; 0.291 µM in the assay on HS 578T breast; 0.304 µM in the assay with IGROV1 ovarian; 0.222 µM in the assay with K-562 leukemia. For the same compound, the figures for the GI50 in the assay on PC-3 prostate, in the assay with SN12C renal and in the assay with SW-620 colon were 0.312 µM, 0.483 µM and 0.407 µM, respectively. Besides, the TGI with CAKI-1 renal was more than 100 µM; in the assay with COLO 205 colon, 1.47 µM; in the assay with HL-60(TB) leukemia, 0.679 µM; in the assay on HS 578T breast it was more than 100 µM; with IGROV1 ovarian, more than 100 µM; with K-562 leukemia it was more than 100 µM. The TGI in the assay with PC-3 prostate, with SN12C renal and with SW-620 colon was more than 100 µM each time.
`C[C@]12CC[C@H](OC(=O)Cc3ccc(N(CCCl)CCCl)cc3)CC1CC[C@@H]1C2CC[C@]2(C)NC(=O)CCC12` (stereo not given in full): the TGI in the assay on CAKI-1 renal turned out to be 15.3 µM; with COLO 205 colon it was 18.4 µM; in the assay with HL-60(TB) leukemia, 6.06 µM; with IGROV1 ovarian it was 30.5 µM; in the assay with K-562 leukemia, 24.8 µM; in the assay on SN12C renal, 18.6 µM. In addition, the TGI in the assay with SW-620 colon is 24.7 µM.
For the compound `CO[C@H](C(=O)O[C@H]1C(=O)N2CCC3CCC1C32C)c1ccccc1` (stereo not given in full), the TGI with CAKI-1 renal, with COLO 205 colon, with HL-60(TB) leukemia, with IGROV1 ovarian, in the assay with K-562 leukemia and in the assay with SN12C renal was more than 100 µM each time. In the assay on SW-620 colon, this compound came in with a TGI of more than 100 µM.
In the case of `CCOC(=O)C1Nc2ccc([N+](=O)[O-])cc2[C@H]2OCC[C@@H]12` (stereo not given in full), the TGI with CAKI-1 renal, with COLO 205 colon, in the assay on HL-60(TB) leukemia, in the assay on IGROV1 ovarian, in the assay on K-562 leukemia and with SN12C renal was more than 100 µM throughout. In addition, in the assay with SW-620 colon, the TGI is more than 100 µM.
Consider `Nc1ncnc2c1ncn2C1OC(CO)CC1O` (stereo not given), for which the TGI with CAKI-1 renal was more than 100 µM; in the assay with COLO 205 colon, more than 100 µM; in the assay with HS 578T breast it was 82.2 µM; with IGROV1 ovarian, more than 100 µM; in the assay on K-562 leukemia, 42.8 µM; with PC-3 prostate, 40.4 µM. The values for the TGI with SN12C renal and in the assay with SW-620 colon were 80.2 µM and more than 100 µM, respectively.
